Values joined by “and” are separate entries in the source; they are usually repeats but may differ in a detail not shown here. Identical values can stand only once. Toxic doses and inconclusive results are not listed. The calls were made as follows: active = survival T/C of 150% or more; inactive = T/C below 125% in these data.
Test system: P388 leukemia ip, CD2F1 mice, survival T/C
Experiment: NCI In Vivo Anticancer Drug Screen. Data for tumor model P388 Leukemia (intraperitoneal) in CD2F1 (CDF1) mice
Conditions: endpoint: median survival time, higher = longer survival
How it was run: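 Mice carrying the transplanted tumor received test compound or vehicle. Survival was recorded in each group, and the value is the treated-group measurement divided by that of the vehicle-treated control group.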

[1] = dose: 12.5 mg/kg/injection, schedule: Q01DX005 (ip), vehicle: Klucel (hydroxypropylcellulose) (HPC)
[2] = dose: 50.0 mg/kg/injection, schedule: Q01DX005 (ip), vehicle: Klucel (hydroxypropylcellulose) (HPC)
[3] = dose: 60.0 mg/kg/injection, schedule: Q01DX005 (ip), vehicle: Klucel (hydroxypropylcellulose) (HPC)
[4] = dose: 120.0 mg/kg/injection, schedule: Q01DX005 (ip), vehicle: Klucel (hydroxypropylcellulose) (HPC)
[5] = dose: 240.0 mg/kg/injection, schedule: Q01DX005 (ip), vehicle: Klucel (hydroxypropylcellulose) (HPC)
[6] = dose: 50.0 mg/kg/injection, schedule: Q01DX005 (ip), vehicle: saline with Tween-80
[7] = dose: 100.0 mg/kg/injection, schedule: Q01DX005 (ip), vehicle: saline with Tween-80
[8] = dose: 50.0 mg/kg/injection, schedule: Q01DX009 (ip), vehicle: saline with Tween-80
[9] = dose: 100.0 mg/kg/injection, schedule: Q01DX009 (ip), vehicle: saline with Tween-80
[10] = dose: 200.0 mg/kg/injection, schedule: Q01DX009 (ip), vehicle: saline with Tween-80
[11] = dose: 200.0 mg/kg/injection, schedule: Q01DX005 (ip), vehicle: saline with Tween-80
[12] = dose: 37.5 mg/kg/injection, schedule: Q01DX009 (ip), vehicle: saline with Tween-80
[13] = dose: 75.0 mg/kg/injection, schedule: Q01DX009 (ip), vehicle: saline with Tween-80

Measured: T/C

CC(=O)Nc1ccc(Cl)cc1C(O)c1ccccc1 (stereo unspecified)
inactive: [1] 89 % of control | dose: 25.0 mg/kg/injection, schedule: Q01DX005 (ip), vehicle: Klucel (hydroxypropylcellulose) (HPC) 91 % of control | [2] 98 % of control and 99 % of control

CC1(C)OC2COC3OC(C)(C)OC3(/C=N\NC(=O)c3cc4ccccc4[nH]3)C2O1 (stereo unspecified)
inactive: [2] 98 % of control | dose: 100.0 mg/kg/injection, schedule: Q01DX005 (ip), vehicle: Klucel (hydroxypropylcellulose) (HPC) 104 % of control | dose: 200.0 mg/kg/injection, schedule: Q01DX005 (ip), vehicle: Klucel (hydroxypropylcellulose) (HPC) 102 % of control

NS(=O)(=O)Oc1ccc(Cl)cc1C(=O)Oc1ccc(Cl)cc1
inactive: [3] 91 % of control | [4] 91 % of control | [5] 88 % of control

COc1ccc2c(c1)CCC(c1ccccc1)=C2c1ccc(OCCN2CCCC2)cc1
inactive: dose: 6.0 mg/kg/injection, schedule: Q01DX005 (ip), vehicle: Klucel (hydroxypropylcellulose) (HPC) 102 % of control | dose: 12.0 mg/kg/injection, schedule: Q01DX005 (ip), vehicle: Klucel (hydroxypropylcellulose) (HPC) 105 % of control | dose: 24.0 mg/kg/injection, schedule: Q01DX005 (ip), vehicle: Klucel (hydroxypropylcellulose) (HPC) 105 % of control | dose: 48.0 mg/kg/injection, schedule: Q01DX005 (ip), vehicle: Klucel (hydroxypropylcellulose) (HPC) 103 % of control

COCC1(C)CCCC2(C)C1CCC13CCCCC12O3 (stereo unspecified)
inactive: dose: 100.0 mg/kg/injection, schedule: Q01DX001 (ip), vehicle: Klucel (hydroxypropylcellulose) (HPC) 100 % of control | dose: 200.0 mg/kg/injection, schedule: Q01DX001 (ip), vehicle: Klucel (hydroxypropylcellulose) (HPC) 100 % of control | dose: 400.0 mg/kg/injection, schedule: Q01DX001 (ip), vehicle: Klucel (hydroxypropylcellulose) (HPC) 100 % of control

CCOC(=O)NC(NC(=O)OCC)C(=O)Nc1cccc2c(OC(=O)C(NC(=O)OCC)NC(=O)OCC)c(N=Nc3ccc(S(=O)(=O)Nc4nccs4)cc3)cc(N=Nc3ccc(S(=O)(=O)Nc4nccs4)cc3)c12 (tested in a mixture with another compound)
inactive: [6] 117 % of control | [7] 112 % of control and 94 % of control

COc1ccc(OC)c(NC(=O)N2CCCC2)c1
inactive: [8] 100 % of control | [9] 96 % of control | [10] 96 % of control

CC(C)(C)OC(=O)NC(Cc1cn(Cc2ccccc2)cn1)C(=O)O (stereo unspecified)
inactive: [8] 96 % of control | [9] 89 % of control | [10] 108 % of control

Cc1cc(=O)c2ccc(Br)cc2[nH]1
inactive: [6] 100 % of control | [7] 97 % of control | [11] 100 % of control

O=C(/C=C\N(c1ccccc1)c1ccccc1)c1ccccc1
inactive: [8] 90 % of control | [9] 93 % of control | [10] 94 % of control

COc1ccccc1Nc1nc(-c2ccc([N+](=O)[O-])o2)cs1
inactive: [6] 93 % of control | [7] 86 % of control | [11] 88 % of control

Cc1ccc(O)c(CN2CCN(Cc3cc(C)ccc3O)CC2)c1
inactive: [3] 86 % of control | [4] 91 % of control | [5] 88 % of control

C/C([O-])=N/c1n[n+](-c2ccc(Cl)cc2)no1
inactive: dose: 3.12 mg/kg/injection, schedule: Q01DX009 (ip), vehicle: other 98 % of control | dose: 6.25 mg/kg/injection, schedule: Q01DX009 (ip), vehicle: other 100 % of control | dose: 12.5 mg/kg/injection, schedule: Q01DX009 (ip), vehicle: other 103 % of control | dose: 25.0 mg/kg/injection, schedule: Q01DX009 (ip), vehicle: other 101 % of control | dose: 50.0 mg/kg/injection, schedule: Q01DX009 (ip), vehicle: other 112 % of control | dose: 100.0 mg/kg/injection, schedule: Q01DX009 (ip), vehicle: other 112 % of control

[N-]=[N+]=NCC1OC(n2cnc3c(N)ncnc32)CC1O (stereo unspecified)
inactive: dose: 60.0 mg/kg/injection, schedule: Q01DX005 (ip), vehicle: saline 104 % of control | dose: 120.0 mg/kg/injection, schedule: Q01DX005 (ip), vehicle: saline 100 % of control | dose: 240.0 mg/kg/injection, schedule: Q01DX005 (ip), vehicle: saline 104 % of control

Nc1nc(N)c2cc(N3CCCC3c3ccc(Cl)cc3)ccc2n1 (stereo unspecified)
inactive: dose: 1.56 mg/kg/injection, schedule: Q01DX005 (ip), vehicle: Klucel (hydroxypropylcellulose) (HPC) 98 % of control | dose: 1.56 mg/kg/injection, schedule: Q01DX009 (ip), vehicle: Klucel (hydroxypropylcellulose) (HPC) 100 % of control and 101 % of control | dose: 3.12 mg/kg/injection, schedule: Q01DX005 (ip), vehicle: Klucel (hydroxypropylcellulose) (HPC) 98 % of control | dose: 3.12 mg/kg/injection, schedule: Q01DX009 (ip), vehicle: Klucel (hydroxypropylcellulose) (HPC) 101 % of control and 118 % of control | dose: 6.25 mg/kg/injection, schedule: Q01DX005 (ip), vehicle: Klucel (hydroxypropylcellulose) (HPC) 96 % of control | [1] 108 % of control

Nc1nc2nc(-c3ccccc3)nc(N)c2nc1C(=O)NN1CCCCC1
inactive: [12] 100 % of control | [13] 87 % of control | dose: 150.0 mg/kg/injection, schedule: Q01DX009 (ip), vehicle: saline with Tween-80 100 % of control

CCOC(=O)c1c(C(=O)OC)nc2n1-c1ccccc1OC2
inactive: dose: 30.0 mg/kg/injection, schedule: Q01DX005 (ip), vehicle: saline with Tween-80 97 % of control | dose: 60.0 mg/kg/injection, schedule: Q01DX005 (ip), vehicle: saline with Tween-80 92 % of control and 94 % of control | dose: 120.0 mg/kg/injection, schedule: Q01DX005 (ip), vehicle: saline with Tween-80 93 % of control | dose: 240.0 mg/kg/injection, schedule: Q01DX005 (ip), vehicle: saline with Tween-80 93 % of control

c1ccc(C(NC2CC3CCC2C3)c2ccccc2)cc1 (stereo unspecified)
inactive: [12] 100 % of control | [13] 95 % of control

NC(c1cccc([N+](=O)[O-])c1)S(=O)(=O)O (stereo unspecified)
inactive: dose: 100.0 mg/kg/injection, schedule: Q04DX002 (ip), vehicle: saline 99 % of control | dose: 200.0 mg/kg/injection, schedule: Q04DX002 (ip), vehicle: saline 105 % of control | dose: 400.0 mg/kg/injection, schedule: Q04DX002 (ip), vehicle: saline 105 % of control

COC(=O)C(C)C(O)C(C)N (stereo unspecified)
inactive: dose: 12.5 mg/kg/injection, schedule: Q01DX009 (ip), vehicle: water 107 % of control | dose: 25.0 mg/kg/injection, schedule: Q01DX009 (ip), vehicle: water 118 % of control | dose: 50.0 mg/kg/injection, schedule: Q01DX009 (ip), vehicle: water 106 % of control | dose: 100.0 mg/kg/injection, schedule: Q01DX009 (ip), vehicle: water 98 % of control | dose: 200.0 mg/kg/injection, schedule: Q01DX009 (ip), vehicle: water 100 % of control

CCCCC1C(C#N)C(=O)NC(=O)C1C#N (stereo unspecified)
inactive: dose: 50.0 mg/kg/injection, schedule: Q01DX009 (ip), vehicle: Klucel (hydroxypropylcellulose) (HPC) 100 % of control | dose: 100.0 mg/kg/injection, schedule: Q01DX009 (ip), vehicle: Klucel (hydroxypropylcellulose) (HPC) 95 % of control | dose: 200.0 mg/kg/injection, schedule: Q01DX009 (ip), vehicle: Klucel (hydroxypropylcellulose) (HPC) 99 % of control

Reference: PubChem BioAssay AID330 (DTP/NCI, 2004)
